Reference: PubChem BioAssay (NCI)
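Briefly, cells in 96-well plates were exposed to five compound concentrations for 48 h, and endpoints were estimated by linear interpolation. TGI marks complete inhibition of growth.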

Columns and labels:
Assay in all cases: NCI-60 cell line screen, 48 h
[1] = tested on: T-47D breast
[2] = tested on: RPMI-8226 leukemia
[3] = tested on: BT-549 breast
[4] = tested on: OVCAR-3 ovarian
[5] = tested on: HOP-62 NSCLC
[6] = tested on: K-562 leukemia
[7] = tested on: SW-620 colon
[8] = tested on: OVCAR-5 ovarian
[9] = tested on: UO-31 renal
[10] = tested on: CAKI-1 renal
[11] = tested on: NCI-H226 lung
[12] = tested on: SF-295 CNS
[13] = tested on: NCI-H522 lung
[14] = tested on: NCI/ADR-RES ovarian
[15] = tested on: U251 CNS
[16] = tested on: 786-0 renal
[17] = tested on: EKVX NSCLC
[18] = tested on: SN12C renal
[19] = tested on: COLO 205 colon
[20] = tested on: OVCAR-4 ovarian
[21] = tested on: SK-MEL-28 melanoma
[22] = tested on: KM12 colon
[23] = tested on: ACHN renal
[24] = tested on: NCI-H23 lung
[25] = tested on: SK-MEL-2 melanoma
[26] = tested on: SK-OV-3 ovarian
[27] = tested on: MDA-MB-435
[28] = tested on: SR leukemia
[29] = tested on: RXF 393 renal
[30] = tested on: SNB-19 CNS
[31] = tested on: MDA-MB-231 breast
[32] = tested on: TK-10 renal
[33] = tested on: A549 NSCLC
[34] = tested on: IGROV1 ovarian
[35] = tested on: MDA-N
[36] = tested on: HCT-15 colon
[37] = tested on: M14 melanoma
[38] = tested on: HOP-92 NSCLC
[39] = tested on: UACC-62 melanoma
[40] = tested on: HCT-116 colon
[41] = tested on: OVCAR-8 ovarian
[42] = tested on: HT29 colon
[43] = tested on: MCF7 breast
[44] = tested on: MALME-3M melanoma
[45] = tested on: MOLT-4 leukemia
[46] = tested on: UACC-257 melanoma
[47] = tested on: SF-539 CNS
[48] = tested on: NCI-H460 lung
[49] = tested on: DU-145 prostate
[50] = tested on: CCRF-CEM leukemia
[51] = tested on: PC-3 prostate
[52] = tested on: SK-MEL-5 melanoma
[53] = tested on: LOX IMVI melanoma
[54] = tested on: HCC-2998 colon
[55] = tested on: HL-60(TB) leukemia
[56] = tested on: SNB-75 CNS
[57] = tested on: HS 578T breast
[58] = tested on: A498 renal
[59] = tested on: SF-268 CNS

Q: `CCN(C(=S)N[C@H](C(=O)N[C@@H](C)C(=O)OC)C(C)C)c1ccccc1` was tested. Which TGI [1] did it give?
A: > 100 µM

Q: And the TGI [2]?
A: > 100 µM

Q: And the TGI [3]?
A: > 100 µM

Q: And the TGI [4]?
A: > 100 µM

Q: And the TGI [5]?
A: > 100 µM

Q: What about the TGI [6] of the same compound?
A: 80.2 µM

Q: And the TGI [7]?
A: > 100 µM

Q: What about the TGI [8] of the same compound?
A: > 100 µM

Q: And the TGI [9]?
A: > 100 µM

Q: What about the TGI [10] of the same compound?
A: > 100 µM

Q: What about the TGI [11] of the same compound?
A: > 100 µM

Q: What about the TGI [12] of the same compound?
A: > 100 µM

Q: And the TGI [13]?
A: > 100 µM

Q: And the TGI [14]?
A: > 100 µM

Q: And the TGI [15]?
A: > 100 µM

Q: And the TGI [16]?
A: > 100 µM

Q: And the TGI [17]?
A: > 100 µM

Q: And the TGI [18]?
A: > 100 µM

Q: What about the TGI [19] of the same compound?
A: > 100 µM

Q: What about the TGI [20] of the same compound?
A: > 100 µM

Q: And the TGI [21]?
A: > 100 µM

Q: What about the TGI [22] of the same compound?
A: > 100 µM

Q: And the TGI [23]?
A: > 100 µM

Q: What about the TGI [24] of the same compound?
A: > 100 µM

Q: And the TGI [25]?
A: > 100 µM

Q: And the TGI [26]?
A: > 100 µM

Q: And the TGI [27]?
A: > 100 µM

Q: What about the TGI [28] of the same compound?
A: 52.7 µM

Q: And the TGI [29]?
A: > 100 µM

Q: What about the TGI [30] of the same compound?
A: > 100 µM

Q: What about the TGI [31] of the same compound?
A: > 100 µM

Q: What about the TGI [32] of the same compound?
A: > 100 µM

Q: What about the TGI [33] of the same compound?
A: > 100 µM

Q: And the TGI [34]?
A: > 100 µM

Q: What about the TGI [35] of the same compound?
A: > 100 µM

Q: And the TGI [36]?
A: > 100 µM

Q: And the TGI [37]?
A: > 100 µM

Q: What about the TGI [38] of the same compound?
A: > 100 µM

Q: And the TGI [39]?
A: > 100 µM

Q: What about the TGI [40] of the same compound?
A: > 100 µM

Q: What about the TGI [41] of the same compound?
A: > 100 µM

Q: And the TGI [42]?
A: > 100 µM

Q: What about the TGI [43] of the same compound?
A: > 100 µM

Q: What about the TGI [44] of the same compound?
A: 98.2 µM

Q: And the TGI [45]?
A: > 100 µM

Q: What about the TGI [46] of the same compound?
A: > 100 µM

Q: And the TGI [47]?
A: 84.3 µM

Q: And the TGI [48]?
A: > 100 µM

Q: And the TGI [49]?
A: > 100 µM

Q: And the TGI [50]?
A: > 100 µM

Q: And the TGI [51]?
A: > 100 µM

Q: And the TGI [52]?
A: > 100 µM

Q: What about the TGI [53] of the same compound?
A: > 100 µM

Q: And the TGI [54]?
A: > 100 µM

Q: For `O=C(c1cc(Cl)ccc1Cl)N1CCN(C(=O)c2cc(Cl)ccc2Cl)CC1`, which TGI [1] is on record?
A: > 100 µM

Q: And the TGI [2]?
A: > 100 µM

Q: What about the TGI [3] of the same compound?
A: > 100 µM

Q: What about the TGI [4] of the same compound?
A: > 100 µM

Q: What about the TGI [5] of the same compound?
A: > 100 µM

Q: What about the TGI [6] of the same compound?
A: > 100 µM

Q: And the TGI [7]?
A: > 100 µM

Q: What about the TGI [8] of the same compound?
A: > 100 µM

Q: And the TGI [9]?
A: > 100 µM

Q: And the TGI [10]?
A: > 100 µM

Q: And the TGI [11]?
A: > 100 µM

Q: What about the TGI [12] of the same compound?
A: > 100 µM

Q: What about the TGI [13] of the same compound?
A: > 100 µM

Q: What about the TGI [15] of the same compound?
A: > 100 µM

Q: And the TGI [55]?
A: > 100 µM

Q: And the TGI [56]?
A: > 100 µM

Q: What about the TGI [57] of the same compound?
A: > 100 µM

Q: And the TGI [16]?
A: > 100 µM

Q: And the TGI [17]?
A: > 100 µM

Q: And the TGI [18]?
A: > 100 µM

Q: And the TGI [20]?
A: > 100 µM

Q: And the TGI [21]?
A: > 100 µM

Q: And the TGI [22]?
A: > 100 µM

Q: And the TGI [58]?
A: > 100 µM

Q: And the TGI [23]?
A: > 100 µM

Q: What about the TGI [24] of the same compound?
A: > 100 µM

Q: What about the TGI [28] of the same compound?
A: > 100 µM

Q: And the TGI [29]?
A: > 100 µM

Q: What about the TGI [30] of the same compound?
A: > 100 µM

Q: What about the TGI [31] of the same compound?
A: > 100 µM

Q: What about the TGI [32] of the same compound?
A: > 100 µM

Q: What about the TGI [33] of the same compound?
A: > 100 µM

Q: What about the TGI [34] of the same compound?
A: > 100 µM

Q: What about the TGI [35] of the same compound?
A: > 100 µM

Q: What about the TGI [36] of the same compound?
A: > 100 µM

Q: What about the TGI [37] of the same compound?
A: > 100 µM

Q: What about the TGI [38] of the same compound?
A: > 100 µM

Q: What about the TGI [40] of the same compound?
A: > 100 µM

Q: What about the TGI [41] of the same compound?
A: > 100 µM

Q: What about the TGI [42] of the same compound?
A: > 100 µM

Q: What about the TGI [43] of the same compound?
A: > 100 µM

Q: What about the TGI [44] of the same compound?
A: > 100 µM

Q: And the TGI [45]?
A: > 100 µM

Q: And the TGI [46]?
A: > 100 µM

Q: And the TGI [59]?
A: > 100 µM

Q: And the TGI [47]?
A: > 100 µM

Q: What about the TGI [48] of the same compound?
A: > 100 µM

Q: What about the TGI [49] of the same compound?
A: > 100 µM

Q: And the TGI [50]?
A: > 100 µM

Q: And the TGI [51]?
A: > 100 µM

Q: What about the TGI [52] of the same compound?
A: > 100 µM

Q: And the TGI [53]?
A: > 100 µM

Q: And the TGI [54]?
A: > 100 µM
